Test results: paper PMC9226124, “Macrocycle-stabilization of its interaction with 14-3-3 increases plasma membrane localization and activity of CFTR” (Nature Communications, 2022)
“And” between values parts separate entries of the source, which are not always exact repeats. Identical values can stand only once.

Legend:
[1] = target: T1, 14-3-3β/CFTRpS753pS768 complex (Homo sapiens, UniProt P13569+P31946); experiment: FP assay, 14-3-3β titration at constant compound concentration (apparent KD); type: binding; conditions: for FP signal, 14-3-3β titration: replicates
T1 construct: His6 (cleaved yes); made in house; peptide synthetic
T1 sequence (P31946 whole entry): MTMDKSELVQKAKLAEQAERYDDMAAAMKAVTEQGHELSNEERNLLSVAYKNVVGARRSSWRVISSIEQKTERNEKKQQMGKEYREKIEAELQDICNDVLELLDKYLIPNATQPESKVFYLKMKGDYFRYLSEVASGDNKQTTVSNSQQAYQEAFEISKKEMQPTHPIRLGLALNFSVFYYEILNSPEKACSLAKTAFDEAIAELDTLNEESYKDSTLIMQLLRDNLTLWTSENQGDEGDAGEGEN
T1 sequence (P13569 747-774 limits assumed): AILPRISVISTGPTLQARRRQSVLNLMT

[2] = target: T2, FITC-labeled CFTRpS753pS768 peptide (no 14-3-3) (Homo sapiens, UniProt P13569); experiment: Dose-response FP control assay in the absence of 14-3-3; type: binding; conditions: No 14-3-3
T2 construct: made in house; host or cells: synthetic peptide
Method in brief: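 Control run without 14-3-3: FITC-CFTR pS753/pS768 peptide (100 nM or 10 nM) with compound titrated in twofold dilutions in 10 mM HEPES pH 7.4, 150 mM NaCl, 0.1% Tween20, 1 mg/mL BSA. Fluorescence polarization read at ex 485/em 535 nm, background subtracted, n = 3. Curves fitted by four-parameter log(agonist) vs. response.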

- FP signal, 14-3-3β titration ([1]; 14-3-3β 1.90735e-9 M, FC-A + CY compound): 2 and 4 and 0
- FP signal, 14-3-3β titration ([1]; 14-3-3β 1.90735e-9 M, compound 100 μM): -2
- FP signal, 14-3-3β titration ([1]; 14-3-3β 3.8147e-9 M, FC-A + CY compound): 2 and 1 and -1
- FP signal, 14-3-3β titration ([1]; 14-3-3β 3.8147e-9 M, compound 100 μM): 2 and 3 and 1
- FP signal, 14-3-3β titration ([1]; 14-3-3β 7.62939e-9 M, FC-A + CY compound): 2 and 1 and 0
- FP signal, 14-3-3β titration ([1]; 14-3-3β 7.62939e-9 M, compound 100 μM): 1 (2×) and 4
- FP signal, 14-3-3β titration ([1]; 14-3-3β 1.52588e-8 M, FC-A + CY compound): 7 and 4 and 6
- FP signal, 14-3-3β titration ([1]; 14-3-3β 1.52588e-8 M, compound 100 μM): 5 (2×) and 3
- FP signal, 14-3-3β titration ([1]; 14-3-3β 3.05176e-8 M, FC-A + CY compound): 3 and 4 and 5
- FP signal, 14-3-3β titration ([1]; 14-3-3β 3.05176e-8 M, compound 100 μM): 3 and 1 (2×)
- FP signal, 14-3-3β titration ([1]; 14-3-3β 6.10352e-8 M, FC-A + CY compound): 6 and 9 (2×)
- FP signal, 14-3-3β titration ([1]; 14-3-3β 6.10352e-8 M, compound 100 μM): 5 and 2 (2×)
- FP signal, 14-3-3β titration ([1]; 14-3-3β 1.2207e-7 M, FC-A + CY compound): 10 and 5 and 8
- FP signal, 14-3-3β titration ([1]; 14-3-3β 1.2207e-7 M, compound 100 μM): 3 and 6 and 2
- FP signal, 14-3-3β titration ([1]; 14-3-3β 2.44141e-7 M, FC-A + CY compound): 16 and 15 and 11
- FP signal, 14-3-3β titration ([1]; 14-3-3β 2.44141e-7 M, compound 100 μM): 7 and 3 and 1
- FP signal, 14-3-3β titration ([1]; 14-3-3β 4.88281e-7 M, FC-A + CY compound): 18 and 25 and 20
- FP signal, 14-3-3β titration ([1]; 14-3-3β 4.88281e-7 M, compound 100 μM): 9 and 4 (2×)
- FP signal, 14-3-3β titration ([1]; 14-3-3β 9.76563e-7 M, FC-A + CY compound): 36 and 40 and 38
- FP signal, 14-3-3β titration ([1]; 14-3-3β 9.76563e-7 M, compound 100 μM): 9 and 11 and 10
- FP signal, 14-3-3β titration ([1]; 14-3-3β 1.95313e-6 M, FC-A + CY compound): 52 and 57 and 55
- FP signal, 14-3-3β titration ([1]; 14-3-3β 1.95313e-6 M, compound 100 μM): 11 (2×) and 13
- FP signal, 14-3-3β titration ([1]; 14-3-3β 3.90625e-6 M, FC-A + CY compound): 75 and 77 and 73
- FP signal, 14-3-3β titration ([1]; 14-3-3β 3.90625e-6 M, compound 100 μM): 25 and 27 and 24
- FP signal, 14-3-3β titration ([1]; 14-3-3β 7.8125e-6 M, FC-A + CY compound): 105 (2×) and 102
- FP signal, 14-3-3β titration ([1]; 14-3-3β 7.8125e-6 M, compound 100 μM): 44 and 43 and 34
- FP signal, 14-3-3β titration ([1]; 14-3-3β 1.5625e-5 M, FC-A + CY compound): 123 and 125 and 121
- FP signal, 14-3-3β titration ([1]; 14-3-3β 1.5625e-5 M, compound 100 μM): 59 and 58 and 51
- FP signal, 14-3-3β titration ([1]; 14-3-3β 3.125e-5 M, FC-A + CY compound): 141 (2×) and 139
- FP signal, 14-3-3β titration ([1]; 14-3-3β 3.125e-5 M, compound 100 μM): 76 (2×) and 79
- FP signal, 14-3-3β titration ([1]; 14-3-3β 6.25e-5 M, FC-A + CY compound): 152 and 151 and 156
- FP signal, 14-3-3β titration ([1]; 14-3-3β 6.25e-5 M, compound 100 μM): 97 (2×) and 95
- FP signal, 14-3-3β titration ([1]; 14-3-3β 0.000125 M, FC-A + CY compound): 161 and 159 and 162
- FP signal, 14-3-3β titration ([1]; 14-3-3β 0.000125 M, compound 100 μM): 113 and 114 and 116
- Fluorescence polarization signal, 14-3-3β titration ([1]; CY compound (100 μM), 14-3-3β concentration 0.00025 M): 132 and 131 and 127
- Fluorescence polarization signal, 14-3-3β titration ([1]; CY compound (100 μM), 14-3-3β concentration 0.0005 M): 146 and 152
- Fluorescence polarization signal, 14-3-3β titration ([1]; FC-A + CY compound, 14-3-3β concentration 0.00025 M): 166 and 162
- Fluorescence polarization signal, 14-3-3β titration ([1]; FC-A + CY compound, 14-3-3β concentration 0.0005 M): 175 and 173 and 177
- FP signal ([2]; compound 324.2 pM): 2
- FP signal ([2]; compound 648.5 pM): 1
- FP signal ([2]; compound 1.297e-9 M): 2
- FP signal ([2]; compound 2.59399e-9 M): 3
- FP signal ([2]; compound 5.18799e-9 M): 3
- FP signal ([2]; compound 1.0376e-8 M): 3
- FP signal ([2]; compound 2.0752e-8 M): 3
- FP signal ([2]; compound 4.15039e-8 M): 3
- FP signal ([2]; compound 8.30078e-8 M): 2
- FP signal ([2]; compound 1.66016e-7 M): 5
- FP signal ([2]; compound 3.32031e-7 M): 4
- FP signal ([2]; compound 6.64062e-7 M): 3
- FP signal ([2]; compound 1.32813e-6 M): 4
- FP signal ([2]; compound 2.65625e-6 M): 5
- FP signal ([2]; compound 5.3125e-6 M): 6
- FP signal ([2]; compound 1.0625e-5 M): 4
- FP signal ([2]; compound 2.125e-5 M): 10
- FP signal ([2]; compound 4.25e-5 M): 18
- FP signal ([2]; compound 8.5e-5 M): 37
- FP signal ([2]; compound 0.00034 M): 117
- FP signal ([2]; compound 0.00068 M): 184
- FP signal ([2]; compound […]): 71
SMILES: N=C(N)NCCCC1NC(=O)C(CCC(N)=O)NC(=O)C(CCCNC(=N)N)NC(=O)C2Cc3ccccc3CN2Cc2cccc(c2)-c2ccccc2CNC1=O (stereo not drawn) [CY007493]
